Laboratory results taken from PMC10754035 (Cancer Research Communications, 2023).
Like-named read-outs stand apart in the source and are kept apart here.

Tests used:
[1] = molecular target: T1, KRAS G12D (Homo sapiens, UniProt P01116, G12D); set-up: method as in PMID 31332011; details: ITC; cited from earlier work
T1 construct: Human His-tagged KRAS4B (1-169) G12D, G12V and G12C were custom synthesized; 6His (pET-28a(+)-TEV vector) (N); host or cells: E. coli BL21 star (DE3)

[2] = molecular target: T2, GTP-KRAS G12D binding to GST-RBD (Homo sapiens, UniProt P01116, G12D); assay: KRAS G12D/GST-RBD pulldown assay; type: biochemical; details: for IC50: GST pulldown, Fig. 2 legend, read-out: IC50, inhibition of GTP-KRAS G12D/GST-RBD binding
T2 construct: Human His-tagged KRAS4B (1-169) G12D, G12V and G12C were custom synthesized; Addgene (GST-RBD) Addgene 13338; host or cells: E. coli BL21 star (DE3)
T2 sequence (P01116 1-169 isoform P01116-2 G12D): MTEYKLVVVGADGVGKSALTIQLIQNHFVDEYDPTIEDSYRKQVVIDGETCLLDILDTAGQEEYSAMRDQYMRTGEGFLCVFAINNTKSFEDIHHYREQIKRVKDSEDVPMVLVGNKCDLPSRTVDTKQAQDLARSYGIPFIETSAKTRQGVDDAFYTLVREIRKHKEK
Method: For pulldown experiment, KRAS G12D was preloaded with either GTP or GDP as described above. GDP- or GTP-bound KRAS G12D proteins (250 nmol/L in 100 µL) were then incubated with indicated compound at 37°C for 15–16 minutes. GST-RBD (final 500 nmol/L) was then added and the mixture rocked at 37°C for 1 hour. Pierce glutathione agarose beads (Thermo Fisher Scientific; 20 µL) were then added and the mixture rocked at 37°C for 1 hour. The beads were then washed and the samples were processed for SDS-PAGE and Western blotting with respective antibodies to check the interaction between KRAS-GTP and GST-RBD proteins in presence or absence of the compounds. All the protein dilutions and washes were carried out in a buffer containing 25 mmol/L Tris (pH 7.5), 100 mmol/L NaCl, 5 mmol/L MgCl2, 1% NP-40, 5% glycerol, and 0.1 mmol/L DTT.
Expression and purification of GST-RBD: The Raf1-GST-RBD in pGEX-2T vector in DH5α cells was obtained from Addgene (Raf1 GST RBD 1-149, Plasmid catalog # 13338). GST-RBD plasmid DNA was transformed in BL21*(DE3) bacteria, streaked on agar plate to obtain the colonies . A distinct colony was picked and grown in ampicillin selection media to OD600 of around 0.6-0.8 before induction with IPTG (0.5 mM). Bacterial pellet was resuspended with lysis buffer (50 mM Tris HCL (pH 7.5), 150 mM NaCl, 0.5% Triton X-100, 5 mM MgCl2, 1 mM DTT, 10% Glycerol, 3 mM β-mercaptoethanol) and homogenized. The homogenized lysate was centrifuged at 14000 rpm at 4 °C for 40 min and the resulting supernatant was collected and filtered. The filtered supernatant was incubated with glutathione agarose (Pierce^TM) beads (Thermo Scientific, USA) at 4 °C for 60 min. After incubation, beads and lysate suspension was passed through Bio-Rad Econo column. The beads were washed using lysis buffer (as described above), and the GST-RBD eluted with elution buffer (50 mM Tris HCL (pH 7.5), 150 mM NaCl, 0.5% Triton X-100, 5 mM MgCl2, 1 mM DTT, 10% Glycerol, 10 mM Glutathione). Eluted GST-RBD protein fractions were buffer exchanged into 25 mM Tris (pH 7.5), 150 mM NaCl, 0.5 mM DTT and 5 mM MgCl2 buffer and stored at -80°C.
GTP and GDP nucleotide exchange for GST-RBD pull down: KRAS protein was exchanged with GTP (Sigma, USA) and GDP (Sigma, USA) using EDTA- loading procedure. The RAS proteins (235 µM final) were incubated with ~40-fold molar excess of EDTA (10 mM final), and ~45-fold molar excess of either GDP or GTP for 90 min at 37°C. After incubation, the sample was kept on ice for 10 minutes before incubating with ice-cooled 1M MgCl2 (65 mM final) for 20 minutes to stop the reaction. To remove excess unbound nucleotide, EDTA and magnesium, the proteins were re-buffered using PD10 columns (GE Life Sciences) into (25 mM Tris (pH 7.5), 150 mM NaCl, 0.5 mM DTT and 5 mM MgCl2) buffer and concentrated using Millipore spin ultrafiltration devices (10,000 Da cut off, 4,000 x g). The protein concentration was measured using Pierce Rapid GOLD BCA Protein Assay Kit (Thermo Scientific, USA) and aliquots were stored in -80°C.

[3] = molecular target: T1, KRAS G12D; assay: Isothermal titration calorimetry, KRAS G12D; type: binding; details: ITC, KRAS G12D-NE (non-exchanged), 25°C
Method: All isothermal titration calorimetry (ITC) experiments were carried out at 25°C on a MicroCal PEAQ ITC Automated (Malvern). […] The final ITC buffer in the syringe and the cell was 25 mmol/L Tris HCl (pH 8.0), 100 mmol/L NaCl, 0.1 mmol/L DTT, 5% glycerol, 1% NP40, 5 mmol/L MgCl2, and 5% DMSO. ITC titration experiments were carried out with 19 injections, 2 µL per injection, and 150 seconds spacing between each injection. Reference cell power was set to 5 µcal/second and stirring speed was 750 rpm. Data were analyzed using a one site binding model with the Malvern analysis software. All ITC experiments were performed at the biophysical facility at the Institute for Structural Biology, Drug Discovery and Development (ISB3D) at Virginia Commonwealth University (Richmond, VA) and the Massey Cancer Center.
Expression and purification of RAS proteins: Human His-tagged KRAS4B (1-169) G12D, G12V and G12C were custom synthesized and cloned into pET-28a(+)-TEV vector to generate pET-28a(+)-6His-KRAS (1-169) plasmids by GenScript USA Inc., Piscataway, NJ. The proteins were expressed and purified as described below. The full length biotinylated human KRAS4B G12D (His6-MBP-tev-Avi-Hs.KRAS4b G12D (2-188) protein was obtained from Dr Dominic Esposito and Dr. William Gillette from the NCI RAS Initiative at the Frederick National Laboratory. Avi-KRAS4b (2-188) G12D was cloned, expression and purified as described previously (1,2).
Expression and purification of KRAS proteins: BL21 star (DE3) competent cells were transformed with pET-28a(+)-6His-KRAS (1-169) plasmids from GenScript, and the resulting colonies were picked under kanamycin selection. The colonies were grown in LB broth and induced with 0.5mM IPTG for 4 hours when OD reached 0.6-0.8. Bacteria pellets were lysed in 25mM Tris HCL (pH7.8) buffer containing 300mM NaCl, 5mM MgCl2, 10mM Imidazole, 5% Glycerol and 3mM β-mercaptoethanol. Membrane filter-cleared lysate supernatants were incubated with HisPur Ni-NTA resin (Thermo scientific) in an oscillating platform at 4°C for 50 minutes. Econo disposable column (Bio-Rad) was used for washing the beads 3 times with 25mM Tris HCl (pH7.8), 300mM NaCl, 5mM MgCl2, 5% Glycerol buffer with 10mM, 20mM and 30mM Imidazole, respectively. Elution was carried with 25mM Tris HCl (pH7.8), 300mM NaCl, 5mM MgCl2, 5% Glycerol and 500mM Imidazole buffer. After confirming the eluted fraction purity on SDS-PAGE gel, proteins fractions were further purified using HiLoad 16/600 superdex 75 PG column in AKTA system. Protein was eluted in 25mM Tris HCL (pH7.8), 150mM NaCl, 5mM MgCl2 and 0.5mM DTT. KRAS protein aliquots were stored in -80°C.
GCP and NH-GDP nucleotide exchange for ITC: KRAS G12D protein in 25 mM Tris HCL (pH 8.0), 1 mM Calcium Chloride Dihydrate and 200 mM (NH4)2SO4 buffer was added to alkaline phosphatase beads (Sigma, USA) (2U per mg of KRAS) and to non-hydrolysable nucleotide analogs, GCP (β,γ-Methyleneguanosine 5′-triphosphate sodium salt, Sigma, USA) or GDP-NH (Guanosine 5′-[β-thio]diphosphate trilithium salt, Sigma, USA) in molar ratio of 10:1 (Nucleotide:KRAS). The reaction mixture was incubated with gentle rotation for 14-18 hrs at 4 °C. After incubation, the mixture was centrifuged at 1500 g, 4°C to remove the alkaline phosphatase beads. MgCl2 (20 mM) and an additional amount of GCP or NH-GDP in molar ratio of 5:1 (Nucleotide:KRAS) were added, and incubated at room temperature for 1 hr. After incubation, nucleotide exchanged protein was desalted and buffer exchanged at 4 °C using PD-10 column (Catalog # 17085101, GE Healthcare, USA), into a final buffer containing 25 mM Tris HCL (pH 7.5), 150 mM NaCl, 5 mM MgCl2 and 0.5 mM DTT. Buffer exchanged protein was concentrated using Amicon ultra centrifugal filter-10K cut off (Catalog # UFC501024, MilliporeSigma, USA). The protein concentration was measured using Pierce Rapid GOLD BCA Protein Assay Kit (Thermo Scientific, USA) and aliquots were stored in -80°C.

T1 sequence (P01116 1-169 isoform P01116-2 G12D): as above

IC50 [2] [nM] | Kd [3] [nM] | loss of potency relative to KRB-456 ([2]; GST pulldown IC50) | Structure (SMILES) | Kd [1] [nM]
– | – | – | Cn1cnc(Cn2ccc3ccc(CNCc4[nH]c5ccccc5c4[C@H]4NC(=O)c5ccc(O)cc54)cc32)c1 [BI-2852] | 740
360 | 641 | – | COC(=O)C1C2C3(C)C(=O)C=CC2(OC3=O)C2CCC3(CI)CC12CC3=O (centres unmarked) [IB-21G] | –
2020 | 4810 | about 10 fold | C=C1C[C@]23C[C@@]1(OC(C)=O)CC[C@H]2[C@@]12C=CC(=O)[C@@](C)(C(=O)O1)[C@H]2[C@@H]3C(=O)OC [IB-21J] | –
10800 | 11600 | – | C=C1C[C@]23C[C@@]1(O)CC[C@H]2[C@@]12C=CC(=O)[C@@](C)(C(=O)O1)[C@H]2[C@@H]3C(=O)NCc1ccccc1 [IIA-15D] | –
